{
  "source": "patent US20090197941A1",
  "about": "“Pharmaceutical Compositons for the Treatment of Chronic Obstructive Pulmonary Disease” (priority 2005, published 2009)",
  "origin": "cited, not measured here",
  "key": {"CB1 receptors": {"biological_target": "CB1 receptors (Homo sapiens, UniProt P21554)", "sequence (P21554 whole entry)": "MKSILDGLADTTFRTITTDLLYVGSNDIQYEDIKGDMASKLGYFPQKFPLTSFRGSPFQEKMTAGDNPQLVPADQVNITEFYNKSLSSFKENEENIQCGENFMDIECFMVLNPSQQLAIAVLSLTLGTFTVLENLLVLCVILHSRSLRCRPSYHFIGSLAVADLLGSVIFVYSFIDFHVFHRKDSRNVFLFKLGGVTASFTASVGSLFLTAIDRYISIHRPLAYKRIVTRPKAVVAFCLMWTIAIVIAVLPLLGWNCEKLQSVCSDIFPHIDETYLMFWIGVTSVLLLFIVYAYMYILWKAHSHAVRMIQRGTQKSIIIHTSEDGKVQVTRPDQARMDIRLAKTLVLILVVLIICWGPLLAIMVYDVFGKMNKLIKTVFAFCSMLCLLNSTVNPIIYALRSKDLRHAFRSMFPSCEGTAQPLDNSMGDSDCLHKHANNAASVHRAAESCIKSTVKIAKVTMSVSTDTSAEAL", "conditions": "known in the art"}, "CB2 receptors": {"biological_target": "CB2 receptors (Homo sapiens, UniProt P34972)", "sequence (P34972 whole entry)": "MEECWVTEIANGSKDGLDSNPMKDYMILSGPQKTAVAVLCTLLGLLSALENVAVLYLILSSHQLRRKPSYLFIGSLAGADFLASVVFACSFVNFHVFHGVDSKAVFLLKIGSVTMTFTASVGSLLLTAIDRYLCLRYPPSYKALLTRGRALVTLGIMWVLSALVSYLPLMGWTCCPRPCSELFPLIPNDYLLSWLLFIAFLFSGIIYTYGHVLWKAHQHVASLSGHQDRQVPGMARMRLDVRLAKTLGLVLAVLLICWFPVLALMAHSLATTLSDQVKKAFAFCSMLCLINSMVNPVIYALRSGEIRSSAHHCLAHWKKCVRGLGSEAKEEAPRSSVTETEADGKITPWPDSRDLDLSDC", "conditions": "known in the art"}, "U87 human glioma cells": {"system": "U87 human glioma cells", "conditions": "increasing concentrations of CBD, Boyden chamber, read-out: IC50 of tumour cell migration"}},
  "data": [
    {"smiles": "C=C(C)[C@@H]1CCC(C)=C[C@H]1c1c(O)cc(CCCCC)cc1O", "note": "[CBD, cannabidiol]", "values": [
      {"measurement": "action at CB1 receptors", "setting": "CB1 receptors", "result": "only very weakly"},
      {"measurement": "action at CB2 receptors", "setting": "CB2 receptors", "result": "not to act"},
      {"measurement": "IC50", "setting": "U87 human glioma cells", "result": "5.05 ± 1.1", "unit": "µM"}
    ]}
  ]
}
